According to paper PMC12881670, “Investigation into ligand selectivity and bias at the formyl peptide receptor family” (The Journal of Pharmacology and Experimental Therapeutics, 2025):
Where a SMILES comes first, the peptide text is derived from it. The star is where a group is joined. For = O=C*

What was measured:
Hs_FPR2 [1] = target: T1, Hs_FPR2 (Homo sapiens, UniProt P25090); test: BRET receptor-RLuc8 interaction with Arrestin 3-YFP; type: cell-based
T1 construct: expressed in transfected cells
T1 sequence (P25090 1-351): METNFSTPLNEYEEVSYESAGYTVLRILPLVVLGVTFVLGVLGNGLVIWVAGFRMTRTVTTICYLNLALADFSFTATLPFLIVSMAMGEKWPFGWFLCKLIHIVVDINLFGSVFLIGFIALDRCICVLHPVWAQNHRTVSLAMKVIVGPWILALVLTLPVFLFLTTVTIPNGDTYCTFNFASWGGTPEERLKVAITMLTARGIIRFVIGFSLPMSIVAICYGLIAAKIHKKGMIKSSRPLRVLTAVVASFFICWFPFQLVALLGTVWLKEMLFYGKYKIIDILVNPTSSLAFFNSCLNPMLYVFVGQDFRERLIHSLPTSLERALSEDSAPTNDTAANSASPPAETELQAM
Experimental: (§1) BRET1 assays to measure FPR interaction with Venus-mGsi and Arrestin 3-yellow fluorescent protein (YFP) were performed as previously described.[31]^,[32] Briefly, all FPRs C-terminally fused to Renilla Luciferase (donor, RLuc8) were transiently transfected along with either Venus-mGsi or YFP-Arrestin 3 (acceptor) at a ratio of 1:4. 24 hours post transfection, cells were replated into white-walled, 96-well plates and cultured for a further 24–48 hours. On the day of experimentation, growth media was aspirated and replaced with 80 μl Hanks Buffered Saline Solution and equilibrated for 30 minutes. Coelenterazine h was added to each well to a final concentration of 5 μM for 5 minutes before the addition of each compound, and the plate was incubated for a further 10 minutes at 37 °C before being read on a ClarioStar Plus, with luminescence measured at 480/20 nm (donor) and 530/20 (acceptor). The BRET ratio (acceptor/donor) was determined, and the background (untreated) subtracted to give the N-BRET value.
(§2) All data were analyzed using GraphPad Prism using the nonlinear regression log(agonist) versus response (3 parameters) function for all assays, except binding, which was analyzed using the One site-FitlogIC50 function. Bias calculations were carried out following IUPHAR guidelines as described,[27]^,[37] and data were presented as the Δ Activity ratio (Log[EmaxB/EC50B])-(Log[EmaxA/EC50A]).

Mm_Fpr2 [2] = target: T2, Mm_Fpr2 (Mus musculus, UniProt O88536); test: as above; type: cell-based
T2 construct: expressed in transfected cells
T2 sequence (O88536 1-351): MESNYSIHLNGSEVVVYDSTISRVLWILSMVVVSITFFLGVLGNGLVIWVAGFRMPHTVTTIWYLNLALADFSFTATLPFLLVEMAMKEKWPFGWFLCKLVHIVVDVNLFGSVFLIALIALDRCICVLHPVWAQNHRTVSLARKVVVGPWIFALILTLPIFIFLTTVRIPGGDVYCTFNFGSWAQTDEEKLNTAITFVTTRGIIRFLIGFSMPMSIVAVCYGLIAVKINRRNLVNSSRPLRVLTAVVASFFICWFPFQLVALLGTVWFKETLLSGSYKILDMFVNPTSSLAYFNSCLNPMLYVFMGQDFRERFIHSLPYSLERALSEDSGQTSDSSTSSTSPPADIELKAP
Experimental: as §1, §2

Hs_FPR2 [3] = target: T1, Hs_FPR2; test: ERK1/2 phosphorylation by Western blotting; type: cell-based
Experimental: (§3) ERK phosphorylation was detected by Western blotting as previously described.[30] Briefly, HEK293 cells stably expressing FLAG-tagged FPRs were plated into 12-well culture plates until 90% confluent. On the day of the experiment, culture media was replaced with serum-free Dulbecco’s modified Eagle’s medium and incubated for 2 hours before stimulation with the indicated compounds. After 7 minutes, the media was removed and stimulation terminated by the addition of 100 μl sample buffer (0.5% SDS, Tris (pH 6.8), glycerol, at >90 °C).
as §2

Mm_Fpr2 [4] = target: T2, Mm_Fpr2; test: ERK1/2 phosphorylation by Western blotting; type: cell-based
Experimental: as §3, §2

Hs_FPR2 [5] = target: T1, Hs_FPR2; test: BRET receptor-RLuc8 interaction with Venus-mGsi; type: cell-based
Experimental: as §1, §2

Mm_Fpr2 [6] = target: T2, Mm_Fpr2; test: BRET receptor-RLuc8 interaction with Venus-mGsi; type: cell-based
Experimental: as §1, §2

Mm_Fpr1 [7] = target: T3, Mm_Fpr1 (Mus musculus, UniProt P33766); test: BRET receptor-RLuc8 interaction with Venus-mGsi; type: cell-based
T3 construct: expressed in transfected cells
T3 sequence (P33766 1-364): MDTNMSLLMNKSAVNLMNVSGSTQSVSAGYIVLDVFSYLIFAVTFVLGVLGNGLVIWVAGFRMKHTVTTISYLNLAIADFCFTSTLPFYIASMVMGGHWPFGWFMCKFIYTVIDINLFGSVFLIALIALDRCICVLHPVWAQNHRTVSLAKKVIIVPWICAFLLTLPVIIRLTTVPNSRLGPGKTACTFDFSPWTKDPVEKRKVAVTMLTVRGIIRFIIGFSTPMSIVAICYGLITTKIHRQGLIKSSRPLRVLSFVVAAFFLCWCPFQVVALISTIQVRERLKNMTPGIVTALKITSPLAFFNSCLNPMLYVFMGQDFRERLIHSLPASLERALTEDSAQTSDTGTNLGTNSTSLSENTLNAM
Experimental: as §1, §2

Mm_Fpr2 [8] = target: T2, Mm_Fpr2; test: Internalization of FLAG-tagged receptors by flow cytometry; type: cell-based; parameters: Emax: dose or concentration left out as unconfirmed
Experimental: (§4) Internalization of FPRs was measured by flow cytometry.[30] Briefly, cells were incubated with Alexa Fluor 657 conjugated M1 antiflag antibody (Sigma-Aldrich Cat# F3040, RRID:AB_439712) for 30 minutes at 37 °C to label surface receptors. Cells were then incubated with the indicated concentration of ligand before washing in PBS/0.04% EDTA to remove any remaining surface antibody. Remaining fluorescence was then measured using flow cytometry on either a BD FACScalibur or Attune, recording 5000 gated events. […] As a control, some samples were left untreated, and “strip only” was measured as a readout of constitutive endocytosis, and this value was subtracted from the data. Vehicle control (0.1% DMSO) had no effect on internalization of receptors.
as §2

Mm_Fpr1 [9] = target: T3, Mm_Fpr1; test: as above; type: cell-based; parameters: Emax: dose or concentration left out as unconfirmed
Experimental: as §4, §2

[10] = test system: formyl peptide receptor family (Hs_FPR1, Hs_FPR2, Mm_Fpr1, Mm_Fpr2); test: Summary of main findings: receptor subtype selectivity and ligand bias across all readouts; parameters: species or system human and mouse
Text: To determine ligand bias, a reference ligand is required, that is, “balanced” for the pathways tested.[37] […] We then used measurements of the activity ratio (Log (Emax/EC50)) for each receptor, ligand, and pathway in an attempt to observe any ligand bias (Fig. 6).

Hs_FPR2 [11] = target: T1, Hs_FPR2; test: Internalization of FLAG-tagged receptors by flow cytometry; type: cell-based; parameters: Emax: dose or concentration left out as unconfirmed
Experimental: (§5) Internalization of FPRs was measured by flow cytometry.[30] Briefly, cells were incubated with Alexa Fluor 657 conjugated M1 antiflag antibody (Sigma-Aldrich Cat# F3040, RRID:AB_439712) for 30 minutes at 37 °C to label surface receptors. Cells were then incubated with the indicated concentration of ligand before washing in PBS/0.04% EDTA to remove any remaining surface antibody. Remaining fluorescence was then measured using flow cytometry on either a BD FACScalibur or Attune, recording 5000 gated events. […] As a control, some samples were left untreated, and “strip only” was measured as a readout of constitutive endocytosis, and this value was subtracted from the data.
as §2

Hs_FPR1 = target: T4, Hs_FPR1 (Homo sapiens, UniProt P21462); test: as above; type: cell-based; parameters: Emax: dose or concentration left out as unconfirmed; settings: Hs_FPR1, 30 min, relative to 1 μM WKYMVm
T4 construct: expressed in transfected cells
T4 sequence (P21462 1-350): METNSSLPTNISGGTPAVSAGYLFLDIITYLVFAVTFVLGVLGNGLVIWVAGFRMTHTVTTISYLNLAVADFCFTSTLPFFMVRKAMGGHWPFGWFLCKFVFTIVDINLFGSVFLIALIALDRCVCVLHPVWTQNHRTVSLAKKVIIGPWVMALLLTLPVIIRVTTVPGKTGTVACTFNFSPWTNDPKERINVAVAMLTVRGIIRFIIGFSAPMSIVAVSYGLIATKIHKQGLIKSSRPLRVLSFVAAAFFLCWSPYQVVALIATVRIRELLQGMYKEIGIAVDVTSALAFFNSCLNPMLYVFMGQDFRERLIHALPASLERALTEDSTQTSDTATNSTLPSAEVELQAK
Experimental: as §5, §2

- Emax (Hs_FPR2 [1]): 51.8%
- Emax (Mm_Fpr2 [2]): 12.1%
- Emax (Hs_FPR2 [3]): 93.9%
- Emax (Mm_Fpr2 [4]): 169%
- Emax (Hs_FPR2 [5]): 44.4%
- Emax (Mm_Fpr2 [6]): 25%
- Emax (Mm_Fpr1 [7]): -8.19%
- Emax (Mm_Fpr2 [8]): 43.9%
- Emax (Mm_Fpr1 [9]): 7.39%
- Bias ([10]; summary grade of ligand bias relative to WKYMVm, key not given): No
- Notes ([10]; summary of main findings, in words): Partial agonist
- Emax (Hs_FPR2 [11]): 63.3%
SMILES: CC[C@H](C)[C@H](NC(=O)[C@H](CC(C)C)NC(=O)[C@H](CCCCN)NC(=O)[C@H](CCSC)NC(=O)[C@H](CC(C)C)NC(=O)[C@@H]1CCCN1C(=O)[C@H](CC(N)=O)NC(=O)[C@@H](NC(=O)[C@H](CCCCN)NC(=O)[C@H](CCCNC(=N)N)NC(=O)[C@H](CCSC)NC(=O)[C@@H]1CCCN1C(=O)[C@@H](NC(=O)[C@H](CCSC)NC=O)[C@@H](C)O)[C@@H](C)CC)C(=O)N[C@@H](CC(N)=O)C(=O)O [MCT-2, Formyl-MTPMRKINPLMKLIN] (For-MTPMRKINPLMKLIN-OH)
- agonist-induced internalization (words) (Mm_Fpr1 [9]; Mm_Fpr1, 30 min, relative to 1 μM WKYMVm): failed to show appreciable internalization
- agonist-induced internalization (words) (Hs_FPR1): failed to show appreciable internalization
